Consider five molecules from PubChem BioAssay AID1919013 (Molecular Pharmacology Branch, DTP, NCI, 2023).

For the assay, the system named is LG0703-F498-PDC complex spheroid growth. The experiment in a line: Anticancer human tumor LG0703-F498-PDC patient-derived lung adenocarcinoma cell line growth inhibition [AhR]. The following applies: for viability, T/C: stronger effect = lower value. An outline of the steps:
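Complex tumor spheroids co-cultured with HUVEC and human MSC stroma; AhR antagonists tested in combination with standard-of-care and investigational agents. Top concentration at or near clinical Cmax (else 10 microM), half-log dilutions; growth expressed as percent test/control.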

The mark [1] stands for this setting: curve of first compound, second compound 0.1 µM.
The mark [2] stands for this setting: curve of first compound, second compound 0.316 µM.
Where [3] appears, read: curve of first compound, second compound 1 µM.
The mark [4] stands for this setting: curve of first compound, second compound 3.16 µM.
The mark [5] stands for this setting: curve of first compound, second compound 10 µM.
[6] abbreviates: second compound 0.1 µM, first compound 0.000949 µM.
The mark [7] stands for this setting: second compound 0.1 µM, first compound 0.003 µM.
Where [8] appears, read: second compound 0.1 µM, first compound 0.00949 µM.
Where [9] appears, read: second compound 0.1 µM, first compound 0.03 µM.
The mark [10] stands for this setting: second compound 0.1 µM, first compound 0.0949 µM.
The mark [11] stands for this setting: second compound 0.1 µM, first compound 0.3 µM.
[12] abbreviates: second compound 0.316 µM, first compound 0.000949 µM.
Setting [13] is: second compound 0.316 µM, first compound 0.003 µM.
Where [14] appears, read: second compound 0.316 µM, first compound 0.00949 µM.
[15] abbreviates: second compound 0.316 µM, first compound 0.03 µM.
The mark [16] stands for this setting: second compound 0.316 µM, first compound 0.0949 µM.
[17] abbreviates: second compound 0.316 µM, first compound 0.3 µM.
The mark [18] stands for this setting: second compound 1 µM, first compound 0.000949 µM.
Where [19] appears, read: second compound 1 µM, first compound 0.003 µM.
The mark [20] stands for this setting: second compound 1 µM, first compound 0.00949 µM.
Setting [21] is: second compound 1 µM, first compound 0.03 µM.
[22] abbreviates: second compound 1 µM, first compound 0.0949 µM.
Setting [23] is: second compound 1 µM, first compound 0.3 µM.
Where [24] appears, read: second compound 3.16 µM, first compound 0.000949 µM.
[25] abbreviates: second compound 3.16 µM, first compound 0.003 µM.
The mark [26] stands for this setting: second compound 3.16 µM, first compound 0.00949 µM.
Setting [27] is: second compound 3.16 µM, first compound 0.03 µM.
Where [28] appears, read: second compound 3.16 µM, first compound 0.0949 µM.
[29] abbreviates: second compound 3.16 µM, first compound 0.3 µM.
Where [30] appears, read: second compound 10 µM, first compound 0.000949 µM.
The mark [31] stands for this setting: second compound 10 µM, first compound 0.003 µM.
[32] abbreviates: second compound 10 µM, first compound 0.00949 µM.
[33] abbreviates: second compound 10 µM, first compound 0.03 µM.
[34] abbreviates: second compound 10 µM, first compound 0.0949 µM.
[35] abbreviates: second compound 10 µM, first compound 0.3 µM.

Each structure is given as a SMILES string. Values joined by “and” are separate entries in the source; they are usually repeats but may differ in a detail not shown here. Equal entries are not always repeated. Bounds are passed on as bounds.
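Further: luminescence taken as a proxy for viable cell amount.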
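Wherever viability, T/C is given: percent of DMSO vehicle control where 100% means growth equal to vehicle.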

For `CC(C)CC(NC(=O)C(Cc1ccccc1)NC(=O)c1cnccn1)B(O)O` (centres undefined) + CC(CO)NC(=O)c1cc(-c2ccc(Cl)cc2)nn(-c2cnn(C)c2)c1=O, the IC50 (in general, the midpoint of a concentration-inhibition curve) runs as follows: under setting [1], 2.38 nM; under setting [2], 2.52 nM; under setting [3], 2.12 nM; under setting [4], 2.09 nM; under setting [5], 1.88 nM. In addition, the viability, T/C (usually the result in the treated group divided by that in the control group, in per cent) is 76.8% under setting [6]; 43.2% under setting [7]; 1.95% under setting [8]; 0.49% under setting [9]; 0.12% under setting [10]; 0.2% under setting [11]. Besides, the viability, T/C under setting [12] is 80%; the viability, T/C under setting [13] was 44.7%; the viability, T/C under setting [14] is 3.04%; the viability, T/C under setting [15] is 0.34%; the viability, T/C under setting [16] is 0.17%; the viability, T/C under setting [17] was 0.17%. Moreover, the viability, T/C reads like this: under setting [18], 75.9%; under setting [19], 38.8%; under setting [20], 2.08%; under setting [21], 0.36%; under setting [22], 1.04%; under setting [23], 0.16%. Also, the viability, T/C is, setting by setting: under setting [24], 78%; under setting [25], 37.3%; under setting [26], 1.6%; under setting [27], 0.13%; under setting [28], 0.63%; under setting [29], 1.52%. Besides, the viability, T/C reads like this: under setting [30], 71.2%; under setting [31], 35.5%; under setting [32], 1.37%; under setting [33], 0.23%; under setting [34], 0.25%; under setting [35], 0.21%.

For the molecule `O=C(c1cc(Cc2n[nH]c(=O)c3ccccc23)ccc1F)N1CCN(C(=O)C2CC2)CC1`, the viability, T/C is, setting by setting: (compound 0.0316 µM) 98.7% and 113% and 108%; (compound 0.1 µM) 106% and 89.2% and 102%; (compound 0.316 µM) 103% and 91.6% and 85.8%; (compound 1 µM) 99.9% and 95.1% and 114%; (compound 3.16 µM) 88.3% and 110% and 109%; (compound 10 µM) 74.2% and 90.4% and 94.5%. For the same molecule, under “curve of compound”, the IC50 is above 10000 nM.

Turning to `CCc1c2c(nc3ccc(O)cc13)-c1cc3c(c(=O)n1C2)COC(=O)[C@]3(O)CC` + CC(CO)NC(=O)c1cc(-c2ccc(Cl)cc2)nn(-c2cnn(C)c2)c1=O, the IC50 is, setting by setting: under setting [1], 47.4 nM; under setting [2], 24.4 nM; under setting [3], 28.3 nM; under setting [4], 19.8 nM; under setting [5], 15.7 nM. The viability, T/C by setting is: under setting [6], 96.2%; under setting [7], 84.6%; under setting [8], 69.7%; under setting [9], 54%; under setting [10], 44%; under setting [11], 26.3%. The viability, T/C is, setting by setting: under setting [12], 82.8%; under setting [13], 94.1%; under setting [14], 62.5%; under setting [15], 46.9%; under setting [16], 36.9%; under setting [17], 24.3%. The viability, T/C was 79% under setting [18]; 75.6% under setting [19]; 67.8% under setting [20]; 48.9% under setting [21]; 32.6% under setting [22]; 26% under setting [23]. Moreover, the viability, T/C was 72.7% under setting [24]; 73.2% under setting [25]; 58.5% under setting [26]; 45.6% under setting [27]; 27.8% under setting [28]; 22.5% under setting [29]. Also, the viability, T/C is, setting by setting: under setting [30], 72%; under setting [31], 74%; under setting [32], 56.5%; under setting [33], 40.5%; under setting [34], 26.4%; under setting [35], 24.5%.

For the molecule `CC(C)c1c(-c2ccccc2)nc2c(C#N)c[nH]n2c1=O`, the viability, T/C runs as follows: (compound 0.0316 µM) 101% and 99.1% and 108%; (compound 0.1 µM) 96.1% and 98.3% and 103%; (compound 0.316 µM) 105% and 107% and 103%; (compound 1 µM) 87% and 102% and 104%; (compound 3.16 µM) 88.2% and 91.2% and 91.7%; (compound 10 µM) 99.6% and 90.7% and 93.6%. Further, under “curve of compound”, the IC50 was above 10000 nM.

In the case of `COc1cc(C2c3cc4c(cc3C(OC3OC5COC(C)OC5C(O)C3O)C3COC(=O)C23)OCO4)cc(OC)c1O` (centres undefined) + CC(CO)NC(=O)c1cc(-c2ccc(Cl)cc2)nn(-c2cnn(C)c2)c1=O, the IC50 reads like this: under setting [1], above 10000 nM; under setting [2], above 10000 nM; under setting [3], above 10000 nM; under setting [4], above 10000 nM; under setting [5], above 10000 nM. Besides, the viability, T/C runs as follows: (second compound 0.1 µM, first compound 0.0316 µM) 111%; (second compound 0.1 µM, first compound 0.1 µM) 108%; (second compound 0.1 µM, first compound 0.316 µM) 93.9%; (second compound 0.1 µM, first compound 1 µM) 87.9%; (second compound 0.1 µM, first compound 3.16 µM) 81.8%; (second compound 0.1 µM, first compound 10 µM) 76.3%. In addition, the viability, T/C is, setting by setting: (second compound 0.316 µM, first compound 0.0316 µM) 98.6%; (second compound 0.316 µM, first compound 0.1 µM) 107%; (second compound 0.316 µM, first compound 0.316 µM) 99.8%; (second compound 0.316 µM, first compound 1 µM) 81.5%; (second compound 0.316 µM, first compound 3.16 µM) 93.3%; (second compound 0.316 µM, first compound 10 µM) 69.9%. Moreover, the viability, T/C reads like this: (second compound 1 µM, first compound 0.0316 µM) 100%; (second compound 1 µM, first compound 0.1 µM) 103%; (second compound 1 µM, first compound 0.316 µM) 101%; (second compound 1 µM, first compound 1 µM) 94.3%; (second compound 1 µM, first compound 3.16 µM) 75.7%; (second compound 1 µM, first compound 10 µM) 75.2%. Moreover, the viability, T/C (second compound 3.16 µM, first compound 0.0316 µM) was 91.1%; the viability, T/C (second compound 3.16 µM, first compound 0.1 µM) is 95.8%; the viability, T/C (second compound 3.16 µM, first compound 0.316 µM) was 96.5%; the viability, T/C (second compound 3.16 µM, first compound 1 µM) was 81.7%; the viability, T/C (second compound 3.16 µM, first compound 3.16 µM) is 72.8%; the viability, T/C (second compound 3.16 µM, first compound 10 µM) was 75.5%. Further, the viability, T/C reads like this: (second compound 10 µM, first compound 0.0316 µM) 84.3%; (second compound 10 µM, first compound 0.1 µM) 85.7%; (second compound 10 µM, first compound 0.316 µM) 90.7%; (second compound 10 µM, first compound 1 µM) 78%; (second compound 10 µM, first compound 3.16 µM) 73%; (second compound 10 µM, first compound 10 µM) 60.8%.
